Measurements as given in paper PMC9251005, “CT295 Is Chlamydia trachomatis’ Phosphoglucomutase and a Type 3 Secretion Substrate” (Frontiers in Cellular and Infection Microbiology, 2022).

Assays:
Format in all cases: biochemical
CpsG-HIS [1] = target: T1, CpsG-HIS (Escherichia coli, UniProt P24175); experiment: HPAEC-PAD product analysis with and without cofactor; settings: 0.2 mg/ml Glc1,6diP, 0.66 mg/ml Glc1P, 10 mM Tris-HCl, 0.5 mM MgSO4, pH 8.0, 37°C, 20 min
T1 construct: gene manB; C-terminal polyhistidine tag, E. coli BL21(DE3), Ni-NTA and Superdex 200
T1 sequence (P24175 1-456): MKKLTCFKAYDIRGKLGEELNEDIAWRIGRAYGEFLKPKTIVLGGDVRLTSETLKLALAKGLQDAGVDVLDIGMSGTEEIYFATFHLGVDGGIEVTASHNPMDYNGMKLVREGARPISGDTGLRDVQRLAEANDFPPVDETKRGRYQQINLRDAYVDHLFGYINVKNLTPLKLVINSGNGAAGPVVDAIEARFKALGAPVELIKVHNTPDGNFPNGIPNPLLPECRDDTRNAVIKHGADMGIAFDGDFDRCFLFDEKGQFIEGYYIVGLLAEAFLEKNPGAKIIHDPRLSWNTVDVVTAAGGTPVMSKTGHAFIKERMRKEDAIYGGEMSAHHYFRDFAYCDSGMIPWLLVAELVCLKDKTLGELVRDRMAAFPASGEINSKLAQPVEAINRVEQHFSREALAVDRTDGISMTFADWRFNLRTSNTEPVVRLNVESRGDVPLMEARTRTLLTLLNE

CCA00344-HIS = target: T2, CCA00344-HIS (Chlamydia caviae, UniProt Q823R2); experiment: HPAEC-PAD product analysis; settings: 0.2 mg/ml Glc1,6diP, 0.1 mg/ml enzyme, 10 mM Tris-HCl, 0.5 mM MgSO4, pH 8.0, 37°C, 20 min
T2 construct: gene CCA_00344; C-terminal polyhistidine tag, E. coli BL21(DE3), Ni-NTA and Superdex 200
T2 sequence (Q823R2 entry or part of it): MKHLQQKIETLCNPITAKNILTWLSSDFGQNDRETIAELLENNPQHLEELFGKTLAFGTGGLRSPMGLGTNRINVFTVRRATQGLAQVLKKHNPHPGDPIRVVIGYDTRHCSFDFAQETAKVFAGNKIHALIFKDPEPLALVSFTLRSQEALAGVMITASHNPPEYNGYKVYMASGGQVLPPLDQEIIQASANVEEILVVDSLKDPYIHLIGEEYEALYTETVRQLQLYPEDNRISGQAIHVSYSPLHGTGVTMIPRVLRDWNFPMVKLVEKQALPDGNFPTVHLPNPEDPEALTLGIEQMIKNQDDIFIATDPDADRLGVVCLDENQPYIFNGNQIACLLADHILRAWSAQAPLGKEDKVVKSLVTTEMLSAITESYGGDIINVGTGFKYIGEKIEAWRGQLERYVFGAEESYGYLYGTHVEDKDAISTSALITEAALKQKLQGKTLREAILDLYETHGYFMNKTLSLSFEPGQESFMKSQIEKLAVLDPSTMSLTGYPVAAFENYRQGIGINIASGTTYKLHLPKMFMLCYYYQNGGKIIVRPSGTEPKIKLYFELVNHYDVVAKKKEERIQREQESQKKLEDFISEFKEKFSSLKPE

CpsG-HIS [2] = target: T1, CpsG-HIS; experiment: HPAEC-PAD product analysis; settings: 0.66 mg/ml Glc1P, 0.2 mg/ml Glc1,6diP, 0.1 mg/ml enzyme, 10 mM Tris-HCl, 0.5 mM MgSO4, pH 8.0, 37°C, 20 min
Flag-CT295 = target: T3, Flag-CT295 (Chlamydia trachomatis, UniProt O84297); experiment: HPAEC-PAD product analysis, enzyme on anti-Flag beads; settings: 0.66 mg/ml Glc1P, no Glc1,6diP, 10 mM Tris-HCl, 0.5 mM MgSO4, pH 8.0, 37°C, 20 min; immobilised enzyme
T3 construct: gene mrsA_1; N-terminal Flag tag, expressed in HEK293T, immobilised on anti-Flag beads
T3 sequence (O84297 entry or part of it): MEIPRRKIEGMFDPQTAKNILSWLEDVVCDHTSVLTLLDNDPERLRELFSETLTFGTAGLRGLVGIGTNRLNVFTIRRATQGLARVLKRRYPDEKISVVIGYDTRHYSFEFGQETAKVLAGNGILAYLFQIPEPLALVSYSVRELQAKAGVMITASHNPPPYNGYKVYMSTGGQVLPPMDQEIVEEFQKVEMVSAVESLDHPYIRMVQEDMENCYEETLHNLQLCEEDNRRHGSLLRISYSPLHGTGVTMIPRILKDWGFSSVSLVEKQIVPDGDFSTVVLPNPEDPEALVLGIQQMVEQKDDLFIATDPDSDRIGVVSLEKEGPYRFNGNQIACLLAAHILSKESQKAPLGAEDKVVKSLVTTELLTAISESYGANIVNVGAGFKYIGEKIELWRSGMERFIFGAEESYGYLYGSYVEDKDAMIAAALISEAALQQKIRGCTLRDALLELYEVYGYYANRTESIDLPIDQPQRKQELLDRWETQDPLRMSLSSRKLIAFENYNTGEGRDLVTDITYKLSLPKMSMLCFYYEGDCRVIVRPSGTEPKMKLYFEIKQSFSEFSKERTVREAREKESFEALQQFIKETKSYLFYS

CT815-HIS = target: T4, CT815-HIS (Chlamydia trachomatis, UniProt O84822); experiment: HPAEC-PAD product analysis; settings: 0.66 mg/ml Glc1P, 0.2 mg/ml Glc1,6diP, 0.1 mg/ml enzyme, 10 mM Tris-HCl, 0.5 mM MgSO4, pH 8.0, 37°C, 20 min
T4 construct: gene glmM; pET28a, C-terminal polyhistidine tag, E. coli BL21(DE3), Ni-NTA and Superdex 200
T4 sequence (O84822 whole entry): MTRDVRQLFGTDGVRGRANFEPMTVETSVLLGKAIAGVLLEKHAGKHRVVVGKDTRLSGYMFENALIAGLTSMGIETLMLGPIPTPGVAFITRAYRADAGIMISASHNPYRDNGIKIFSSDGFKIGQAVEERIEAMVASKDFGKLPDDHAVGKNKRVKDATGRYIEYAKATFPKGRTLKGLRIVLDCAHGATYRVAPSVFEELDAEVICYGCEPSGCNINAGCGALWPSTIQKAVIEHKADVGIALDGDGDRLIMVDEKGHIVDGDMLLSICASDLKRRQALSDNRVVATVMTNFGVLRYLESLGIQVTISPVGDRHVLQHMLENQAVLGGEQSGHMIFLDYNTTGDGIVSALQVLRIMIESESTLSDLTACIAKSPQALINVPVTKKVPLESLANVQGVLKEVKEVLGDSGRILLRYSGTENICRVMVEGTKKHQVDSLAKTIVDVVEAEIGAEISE

With `O=P(O)(O)OC[C@H]1O[C@H](OP(=O)(O)O)[C@H](O)[C@@H](O)[C@@H]1O` [Glc1,6diP] the “HPAEC-PAD product analysis with and without cofactor” value (CpsG-HIS [1]) was “CpsG-HIS required the presence of Glc1,6diP to convert Glc1P into Glc6P”.
For `O=P(O)(O)O[C@H]1O[C@H](CO)[C@@H](O)[C@H](O)[C@H]1O` [Glc1P], the HPAEC-PAD product analysis (CCA00344-HIS; 0.66 mg/ml Glc1P) was “Incubation of Glc1P in the presence of CCA00344-HIS led to its full conversion into Glc6P”, the HPAEC-PAD product analysis (CpsG-HIS [2]) was “CpsG-HIS required the presence of Glc1,6diP to convert Glc1P into Glc6P” and the “HPAEC-PAD product analysis, enzyme on anti-Flag beads” value (Flag-CT295) was “These data demonstrated the ability of CT295 to convert Glc1P into Glc6P”. For the same compound, the HPAEC-PAD product analysis (CT815-HIS) was “only low levels of Glc6P were detected in the presence of CT815-HIS”.
With `O=P(O)(O)OC[C@H]1OC(O)[C@H](O)[C@@H](O)[C@@H]1O` (stereo partly drawn) [Glc6P] the HPAEC-PAD product analysis (CCA00344-HIS; 0.33 mg/ml Glc6P, reverse reaction) was “very low amounts of Glc1P were detected after incubation with CCA00344-HIS or CpsG-HIS”.
